{"source": "patent US4407794A", "about": "“Peptides and therapeutic applications thereof” (Centre National de la Recherche Scientifique (CNRS), priority 1980, dated 1983)", "key": {"rats [1]": {"test_system": "rats", "experiment": "Anti-diarrhea action, castor oil test", "assay_type": "in vivo", "conditions": "10 rats, one hour prior to castor oil", "method": "This action was investigated by the castor oil test in rats, using the method according to Niemegeers and co-workers (Arzn.-Forsch. 22, 516-518, 1972).\nThe tests were conducted with male rats of 160-220 g body weight. After an 18 hr fasting period, each animal was orally administered 1 ml castor oil.\nThe test compounds, dissolved in water, were administered orally under a volume of 0.5 ml per 100 g body weight, one hour prior to the castor oil administration."}, "μ receptors": {"molecular_target": "μ receptors (Cavia porcellus, UniProt P97266)", "sequence (P97266 whole entry, looked up)": "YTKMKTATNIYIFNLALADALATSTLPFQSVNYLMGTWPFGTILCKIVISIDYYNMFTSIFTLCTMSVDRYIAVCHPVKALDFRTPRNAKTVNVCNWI", "experiment": "Inhibition of the contraction of the isolated guinea-pig ileum induced by coaxial stimulation", "assay_type": "cell-based, guinea-pigs", "conditions": "for ILEUM Relative action: % activity with respect to Met-Enkephalin=100; for IC50: isolated guinea-pig ileum, coaxial stimulation, number of experiments in parentheses, read-out: ILEUM IC 50", "method": "(§1) The study of the action on μ receptors or on σ receptors was conducted as a function of the effect on the isolated ileum of guinea-pigs or on the vas deferens of mice.\nThe action on the μ receptors was determined by the measure of the 50% inhibiting concentration (IC 50) of the contraction of the isolated ileum of guinea-pigs, induced by coaxial stimulation (PATON W.D.M., Brit.J. Pharm. 1959, 12, 119).\nThe 50% inhibiting concentrations are expressed as nanomolar/liter concentrations. Each product is tested with respect to Met-Enkephalin as reference material and the results obtained are also expressed as % activity with respect to Met-Enkephalin=100.\n(§2) The ratio [formula] makes it possible to find out whether the test material is […] σ- specific. In said Table, the number of experiments is indicated between parentheses."}, "mice": {"test_system": "mice", "experiment": "Analgesic activity, hot-plate (65° C.) test, i.v.", "assay_type": "in vivo", "conditions": "for Reaction time (s) 15' Licking: 15 minutes; for Reaction time (s) 30' Leap: 30 minutes; for Reaction time (s) 60' Adjusted jump: 60 minutes; for Reaction time (s) 90' Adjusted jump: 90 minutes", "method": "The compounds were tested in vivo by the intravenous route (i.v.) in mice, using the hot-plate (65° C.) test in mice, according to the method disclosed by JACOB & BLOZOVSKI (Arch.Int.Pharmacodyn. 1961, 33,296) by determination of the licking reflex at 15 minutes, of the leap at 30 minutes and of the adjusted jump at 60 and 90 minutes.\nDAla2 Met-Enkephalin was used as reference material."}, "liberation of dopamine": {"test_system": "liberation of dopamine", "experiment": "Spontaneous liberation of dopamine, ICV injection tests", "assay_type": "in vivo"}, "[2]": {"assay_type": "cell-based, mice", "conditions": "mouse vas deferens, electric stimulation; number of experiments in parentheses; read-out: VAS DEFERENS IC 50", "method": "as §1\n(§3) The action on the σ receptors was determined by the measure of the 50% inhibiting concentration (IC 50) of the contraction of the vas deferens of mice, induced by electric stimulation.\n(§4) The 50% inhibiting concentrations are expressed as nanomolar/liter concentrations.\nas §2"}, "σ receptors": {"test_system": "σ receptors", "assay_type": "cell-based, mice", "conditions": "for VAS DEFERENS Relative action: % activity with respect to Met-Enkephalin=100; for R IC 50 ileum / IC 50 V.D.: ratio of ileum (μ) IC50 to vas deferens IC50", "method": "as §1, §3, §4, §2"}, "rats [3]": {"test_system": "rats", "experiment": "Naxolone susceptibility test, appearance of dependence (abstinence jumps)", "assay_type": "in vivo", "conditions": "25 mg/kg 4 times a day for 10 days, Naxolone 10 mg/kg s.c. on the 10th day", "method": "This test makes it possible to evaluate the dependence induced by chronic administration of morphinic analgesics. It comprises inducing the dependence condition after 10 days of treatment by injection of a high doage of an antagonist: naxolone. Compound 1 was tested by ICV administration in rats, using the technique according to Frederickson et al., Res. Common.Pathol.Pharmacol. 5, 867(1973).\nThe results obtained are set forth in Table IV below and are compared with those obtained with morphine."}, "rats [4]": {"test_system": "rats", "experiment": "Locomotor activity after i.v. administration", "assay_type": "in vivo", "conditions": "5 mg/kg i.v., male rats, group of 10; saline reference group 100 ± 15%", "method": "This preferential effect of δ-specific compound I on the dopaminergic receptors may be evidenced by i.v. administration of compound I and determination of the locomotor activity according to STINUS et al. Proc.Natl. Acad.Sci.USA 77, 2302 (1980). Each experiment was conducted on a group of 10 animals (male rats weighing 200-250 g) and the results obtained were compared with those of a reference group."}}, "note": "Peptide text beside a SMILES is read from it.", "data": [{"compound": "COc1ccc2c3c1O[C@H]1[C@@H](O)C=C[C@H]4[C@@H](C2)N(C)CC[C@@]341", "note": "[Codein base]", "values": [{"measurement": "Number of non-diarrheic animals 2 hours", "setting": "rats [1]; 3 mg/kg orally", "value": 7}, {"measurement": "Number of non-diarrheic animals 4 hours", "setting": "rats [1]; 3 mg/kg orally", "value": 4}, {"measurement": "Number of non-diarrheic animals 2 hours", "setting": "rats [1]; 10 mg/kg orally", "value": 10}, {"measurement": "Number of non-diarrheic animals 4 hours", "setting": "rats [1]; 10 mg/kg orally", "value": 7}]}, {"compound": "CC(C)C[C@H](NC(=O)[C@H](Cc1ccccc1)NC(=O)CNC(=O)[C@@H](CO)NC(=O)[C@@H](N)Cc1ccc(O)cc1)C(=O)N[C@H](C(=O)O)[C@@H](C)O", "note": "[Example 1, TyrD.SerGlyPheLeuThr]", "values": [{"measurement": "ILEUM Relative action", "setting": "μ receptors", "value": 55, "unit": "%"}, {"measurement": "IC50", "setting": "μ receptors", "value": 637, "unit": "nM"}, {"measurement": "Reaction time (s) 15' Licking", "setting": "mice; 35 mg/kg i.v.", "value": "29.4 ± 3.2", "unit": "s"}, {"measurement": "Reaction time (s) 30' Leap", "setting": "mice; 35 mg/kg i.v.", "value": "30.1 ± 5.7", "unit": "s"}, {"measurement": "Reaction time (s) 60' Adjusted jump", "setting": "mice; 35 mg/kg i.v.", "value": "28.6 ± 7.2", "unit": "s"}, {"measurement": "Reaction time (s) 90' Adjusted jump", "setting": "mice; 35 mg/kg i.v.", "value": "32.2 ± 9.2", "unit": "s"}, {"measurement": "Increase of spontaneous liberation of dopamine", "setting": "liberation of dopamine; 5×10^-8 M", "value": 100, "unit": "%"}, {"measurement": "IC50", "setting": "[2]", "value": 0.8, "unit": "nM"}, {"measurement": "VAS DEFERENS Relative action", "setting": "σ receptors", "value": 2250, "unit": "%"}, {"measurement": "R IC 50 ileum / IC 50 V.D.", "setting": "σ receptors", "value": 796}, {"measurement": "Abstinence test (jumps)", "setting": "rats [3]", "value": "10 ± 2", "unit": "jumps"}, {"measurement": "Locomotor activity", "setting": "rats [4]", "value": "65 ± 10", "unit": "%"}]}, {"compound": "CC(C)C[C@H](NC(=O)[C@H](Cc1ccccc1)NC(=O)CNC(=O)[C@@H](C)NC(=O)[C@@H](N)Cc1ccc(O)cc1)C(=O)N[C@H](C(=O)O)[C@@H](C)O", "note": "[Example 2, TyrD.AlaGlyPheLeuThr] (HELM PEPTIDE1{Y.[dA].G.F.L.T}$$$$V2.0)", "values": [{"measurement": "IC50", "setting": "μ receptors", "value": 500, "unit": "nM"}]}, {"compound": "CSCC[C@H](NC(=O)[C@H](Cc1ccccc1)NC(=O)CNC(=O)[C@@H](C)NC(=O)[C@@H](N)Cc1ccc(O)cc1)C(=O)NCCCCCNS(=O)(=O)c1cccc2c(N(C)C)cccc12", "note": "[Example 13 of patent FR 78 12 543]", "values": [{"measurement": "ILEUM Relative action", "setting": "μ receptors", "value": 110, "unit": "%"}, {"measurement": "IC50", "setting": "[2]", "value": 650, "unit": "nM"}, {"measurement": "VAS DEFERENS Relative action", "setting": "σ receptors", "value": 2.7, "unit": "%"}, {"measurement": "R IC 50 ileum / IC 50 V.D.", "setting": "σ receptors", "value": 0.49}]}, {"compound": "CCCC[C@H](NC(=O)[C@H](Cc1ccccc1)NC(=O)CNC(=O)[C@@H](CO)NC(=O)[C@@H](N)Cc1ccc(O)cc1)C(=O)N[C@H](C(=O)O)[C@@H](C)O", "note": "[Example 25, TyrD.SerGlyPheN.LeuThr]", "values": [{"measurement": "IC50", "setting": "μ receptors", "value": 1050, "unit": "nM"}]}, {"compound": "CC(C)C[C@@H](NC(=O)[C@H](Cc1ccccc1)NC(=O)CNC(=O)[C@@H](CO)NC(=O)[C@@H](N)Cc1ccc(O)cc1)C(=O)O", "note": "[Example 45, TyrD.SerGlyPheD.Leu] (HELM PEPTIDE1{Y.[dS].G.F.[dL]}$$$$V2.0)", "values": [{"measurement": "IC50", "setting": "μ receptors", "value": 247, "unit": "nM"}]}, {"compound": "CSCC[C@H](NC(=O)[C@H](Cc1ccccc1)NC(=O)CNC(=O)CNC(=O)[C@@H](N)Cc1ccc(O)cc1)C(=O)O", "note": "[Met-Enkephalin]", "values": [{"measurement": "ILEUM Relative action", "setting": "μ receptors", "value": 100, "unit": "%"}, {"measurement": "IC50", "setting": "μ receptors", "value": 354, "unit": "nM"}, {"measurement": "IC50", "setting": "[2]", "value": "[…]"}, {"measurement": "VAS DEFERENS Relative action", "setting": "σ receptors", "value": 100, "unit": "%"}, {"measurement": "R IC 50 ileum / IC 50 V.D.", "setting": "σ receptors", "value": "[…]"}]}, {"compound": "CN1CC[C@]23c4c5ccc(O)c4O[C@H]2[C@@H](O)C=C[C@H]3[C@H]1C5.Cl", "note": "[Morphin (hydrochloride)]", "values": [{"measurement": "Number of non-diarrheic animals 2 hours", "setting": "rats [1]; 1 mg/kg orally", "value": 9}, {"measurement": "Number of non-diarrheic animals 4 hours", "setting": "rats [1]; 1 mg/kg orally", "value": 4}, {"measurement": "Number of non-diarrheic animals 2 hours", "setting": "rats [1]; 3 mg/kg orally", "value": 10}, {"measurement": "Number of non-diarrheic animals 4 hours", "setting": "rats [1]; 3 mg/kg orally", "value": 6}]}, {"compound": "CN1CC[C@]23c4c5ccc(O)c4O[C@H]2[C@@H](O)C=C[C@H]3[C@H]1C5", "note": "[Morphin, morphine]", "values": [{"measurement": "Increase of spontaneous liberation of dopamine", "setting": "liberation of dopamine; 10^-6 M", "value": 50, "unit": "%"}, {"measurement": "Abstinence test (jumps)", "setting": "rats [3]", "value": "74 ± 11", "unit": "jumps"}]}, {"compound": "D.Ala2 Met-Enkephalin", "values": [{"measurement": "Reaction time (s) 15' Licking", "setting": "mice; 100 mg/kg i.v.", "value": "5.5 ± 1", "unit": "s"}, {"measurement": "Reaction time (s) 30' Leap", "setting": "mice; 100 mg/kg i.v.", "value": "5.5 ± 1.6", "unit": "s"}, {"measurement": "Reaction time (s) 60' Adjusted jump", "setting": "mice; 100 mg/kg i.v.", "value": "5.5 ± 1.2", "unit": "s"}, {"measurement": "Reaction time (s) 90' Adjusted jump", "setting": "mice; 100 mg/kg i.v.", "value": "5.6 ± 2", "unit": "s"}]}, {"compound": "DAla^2 Met.Enkamide", "values": [{"measurement": "Increase of spontaneous liberation of dopamine", "setting": "liberation of dopamine; 10^-6 M", "value": 100, "unit": "%"}]}]}
